Residual activity data for two compounds are collected here from paper PMC9030254, “Target Hopping from Protein Kinases to PXR: Identification of Small-Molecule Protein Kinase Inhibitors as Selective Modulators of Pregnane X Receptor from TüKIC Library” (Cells, 2022).

Structures are written as SMILES.

Assay in all cases: Kinase profiling
Type in all cases: biochemical

For test [1], the target named is T1, ARK5 (Homo sapiens, UniProt O60285).
T1 construct: purchased ProQinase (Freiburg, Germany)
T1 sequence (O60285 1-661): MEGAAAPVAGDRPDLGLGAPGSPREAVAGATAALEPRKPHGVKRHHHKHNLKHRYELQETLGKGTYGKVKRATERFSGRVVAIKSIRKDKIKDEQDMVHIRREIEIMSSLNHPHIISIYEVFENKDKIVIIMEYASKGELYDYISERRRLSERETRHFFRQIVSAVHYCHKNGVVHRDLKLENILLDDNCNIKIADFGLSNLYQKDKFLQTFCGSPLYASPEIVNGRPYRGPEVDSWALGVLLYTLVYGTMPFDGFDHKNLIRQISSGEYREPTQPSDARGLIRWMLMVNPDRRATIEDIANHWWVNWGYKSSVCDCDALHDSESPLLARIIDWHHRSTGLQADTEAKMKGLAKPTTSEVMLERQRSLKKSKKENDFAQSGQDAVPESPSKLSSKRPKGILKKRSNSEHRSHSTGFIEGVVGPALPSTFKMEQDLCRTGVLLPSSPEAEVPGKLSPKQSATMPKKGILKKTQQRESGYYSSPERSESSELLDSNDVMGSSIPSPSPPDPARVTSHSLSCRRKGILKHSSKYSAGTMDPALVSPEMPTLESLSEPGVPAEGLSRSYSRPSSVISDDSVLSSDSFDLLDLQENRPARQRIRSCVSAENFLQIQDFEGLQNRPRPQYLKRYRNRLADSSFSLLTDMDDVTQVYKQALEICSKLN
The procedure: (§1) The analysis was performed by ProQinase (Freiburg, Germany).

In test [2] the target is T2, CK1gamma1 (Homo sapiens, UniProt Q9HCP0).
T2 construct: purchased ProQinase (Freiburg, Germany)
T2 sequence (Q9HCP0 whole entry): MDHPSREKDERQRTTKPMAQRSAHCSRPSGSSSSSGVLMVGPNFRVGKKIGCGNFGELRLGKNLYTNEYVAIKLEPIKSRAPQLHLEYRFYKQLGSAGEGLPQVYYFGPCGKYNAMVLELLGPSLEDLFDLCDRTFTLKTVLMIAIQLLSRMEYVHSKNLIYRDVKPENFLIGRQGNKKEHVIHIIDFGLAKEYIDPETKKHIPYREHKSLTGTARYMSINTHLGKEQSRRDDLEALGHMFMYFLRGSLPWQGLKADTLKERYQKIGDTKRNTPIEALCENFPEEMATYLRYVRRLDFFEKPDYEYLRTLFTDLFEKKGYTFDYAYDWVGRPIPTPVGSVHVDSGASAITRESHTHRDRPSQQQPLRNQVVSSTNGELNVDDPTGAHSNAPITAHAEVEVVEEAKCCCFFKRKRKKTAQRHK
The procedure: as §1

Test [3] deals with T3, EPHA6 (Homo sapiens, UniProt Q9UF33).
T3 construct: purchased ProQinase (Freiburg, Germany)
T3 sequence (Q9UF33 23-1036): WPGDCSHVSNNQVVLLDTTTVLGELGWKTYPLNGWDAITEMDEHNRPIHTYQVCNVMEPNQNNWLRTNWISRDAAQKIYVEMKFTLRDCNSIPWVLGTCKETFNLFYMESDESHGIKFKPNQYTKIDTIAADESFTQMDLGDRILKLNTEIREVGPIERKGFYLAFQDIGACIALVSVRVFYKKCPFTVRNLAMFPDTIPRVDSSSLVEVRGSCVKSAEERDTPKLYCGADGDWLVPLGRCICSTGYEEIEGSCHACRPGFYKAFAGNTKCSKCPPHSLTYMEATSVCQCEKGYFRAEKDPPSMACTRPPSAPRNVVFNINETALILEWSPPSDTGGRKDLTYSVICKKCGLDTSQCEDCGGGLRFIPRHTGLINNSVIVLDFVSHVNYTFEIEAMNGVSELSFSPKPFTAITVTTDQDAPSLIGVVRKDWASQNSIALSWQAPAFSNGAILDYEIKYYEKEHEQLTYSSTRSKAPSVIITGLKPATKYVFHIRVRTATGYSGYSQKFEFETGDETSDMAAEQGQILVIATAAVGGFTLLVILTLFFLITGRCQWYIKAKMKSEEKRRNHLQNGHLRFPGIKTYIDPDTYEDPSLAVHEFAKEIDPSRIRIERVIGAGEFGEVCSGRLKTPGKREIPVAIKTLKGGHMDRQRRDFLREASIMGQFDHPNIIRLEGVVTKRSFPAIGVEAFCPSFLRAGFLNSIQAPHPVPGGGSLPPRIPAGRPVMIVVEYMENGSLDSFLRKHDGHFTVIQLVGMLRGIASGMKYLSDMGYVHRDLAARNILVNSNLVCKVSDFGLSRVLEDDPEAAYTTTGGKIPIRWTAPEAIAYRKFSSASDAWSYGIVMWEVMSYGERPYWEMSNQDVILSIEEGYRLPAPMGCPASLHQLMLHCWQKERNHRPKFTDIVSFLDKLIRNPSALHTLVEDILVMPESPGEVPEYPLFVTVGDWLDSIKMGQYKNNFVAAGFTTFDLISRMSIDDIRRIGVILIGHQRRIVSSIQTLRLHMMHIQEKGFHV
The procedure: as §1

The target in test [4] is T4, MKK7 (Homo sapiens, UniProt O14733).
T4 construct: purchased ProQinase (Freiburg, Germany)
T4 sequence (O14733 1-419): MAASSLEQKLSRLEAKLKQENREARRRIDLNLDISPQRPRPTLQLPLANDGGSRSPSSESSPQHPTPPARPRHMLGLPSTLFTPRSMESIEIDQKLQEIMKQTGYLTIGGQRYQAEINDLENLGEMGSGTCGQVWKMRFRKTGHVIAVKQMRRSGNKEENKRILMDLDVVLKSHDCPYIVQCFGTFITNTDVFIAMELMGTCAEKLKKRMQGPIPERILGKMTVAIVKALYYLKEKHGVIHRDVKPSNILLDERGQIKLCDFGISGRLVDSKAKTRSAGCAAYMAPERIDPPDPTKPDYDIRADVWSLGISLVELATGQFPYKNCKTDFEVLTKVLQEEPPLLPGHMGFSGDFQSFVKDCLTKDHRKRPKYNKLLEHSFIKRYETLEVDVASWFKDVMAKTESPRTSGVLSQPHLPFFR
As to the method: as §1

Test [5] has as its target T5, PDK1 (Homo sapiens, UniProt O15530).
T5 construct: purchased ProQinase (Freiburg, Germany)
T5 sequence (O15530 1-556): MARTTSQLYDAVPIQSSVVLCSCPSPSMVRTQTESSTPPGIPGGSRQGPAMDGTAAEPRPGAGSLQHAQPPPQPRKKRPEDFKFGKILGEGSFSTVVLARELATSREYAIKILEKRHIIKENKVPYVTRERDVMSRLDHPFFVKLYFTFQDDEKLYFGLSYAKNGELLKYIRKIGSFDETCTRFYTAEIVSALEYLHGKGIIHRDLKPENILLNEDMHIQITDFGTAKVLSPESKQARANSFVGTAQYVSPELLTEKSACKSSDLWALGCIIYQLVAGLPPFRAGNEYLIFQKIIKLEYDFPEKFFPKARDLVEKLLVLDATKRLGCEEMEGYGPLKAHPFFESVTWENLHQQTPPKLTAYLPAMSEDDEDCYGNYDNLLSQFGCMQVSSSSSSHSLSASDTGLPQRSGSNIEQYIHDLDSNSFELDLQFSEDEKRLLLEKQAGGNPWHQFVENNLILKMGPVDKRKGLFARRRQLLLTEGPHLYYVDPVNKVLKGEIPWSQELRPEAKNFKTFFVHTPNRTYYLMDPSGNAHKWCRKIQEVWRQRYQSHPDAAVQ
As to the method:
as §1

The target of test [6] is T6, PKCbeta2 (Homo sapiens, UniProt P05771).
T6 construct: purchased ProQinase (Freiburg, Germany)
T6 sequence (P05771 1-673 isoform P05771-2): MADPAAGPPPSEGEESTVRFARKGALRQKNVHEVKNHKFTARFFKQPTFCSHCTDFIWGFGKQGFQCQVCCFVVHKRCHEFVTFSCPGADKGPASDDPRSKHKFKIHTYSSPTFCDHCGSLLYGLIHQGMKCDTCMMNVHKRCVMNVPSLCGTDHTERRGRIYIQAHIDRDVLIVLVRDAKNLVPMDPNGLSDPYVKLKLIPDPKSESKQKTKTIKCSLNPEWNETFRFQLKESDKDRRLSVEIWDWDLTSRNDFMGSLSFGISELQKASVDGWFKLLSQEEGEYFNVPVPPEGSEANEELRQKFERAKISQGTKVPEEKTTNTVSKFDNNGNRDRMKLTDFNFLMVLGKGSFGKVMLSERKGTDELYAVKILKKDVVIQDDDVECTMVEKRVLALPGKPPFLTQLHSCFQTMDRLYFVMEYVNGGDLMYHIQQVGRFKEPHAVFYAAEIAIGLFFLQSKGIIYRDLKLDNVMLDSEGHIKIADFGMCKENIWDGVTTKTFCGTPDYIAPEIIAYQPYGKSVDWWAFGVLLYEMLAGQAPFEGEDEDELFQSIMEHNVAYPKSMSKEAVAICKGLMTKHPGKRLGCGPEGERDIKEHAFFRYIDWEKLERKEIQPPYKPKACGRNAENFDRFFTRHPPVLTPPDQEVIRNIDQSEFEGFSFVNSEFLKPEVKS
The procedure:
as §1

For test [7], the target named is T7, PKCdelta (Homo sapiens, UniProt Q05655).
T7 construct: purchased ProQinase (Freiburg, Germany)
T7 sequence (Q05655 whole entry): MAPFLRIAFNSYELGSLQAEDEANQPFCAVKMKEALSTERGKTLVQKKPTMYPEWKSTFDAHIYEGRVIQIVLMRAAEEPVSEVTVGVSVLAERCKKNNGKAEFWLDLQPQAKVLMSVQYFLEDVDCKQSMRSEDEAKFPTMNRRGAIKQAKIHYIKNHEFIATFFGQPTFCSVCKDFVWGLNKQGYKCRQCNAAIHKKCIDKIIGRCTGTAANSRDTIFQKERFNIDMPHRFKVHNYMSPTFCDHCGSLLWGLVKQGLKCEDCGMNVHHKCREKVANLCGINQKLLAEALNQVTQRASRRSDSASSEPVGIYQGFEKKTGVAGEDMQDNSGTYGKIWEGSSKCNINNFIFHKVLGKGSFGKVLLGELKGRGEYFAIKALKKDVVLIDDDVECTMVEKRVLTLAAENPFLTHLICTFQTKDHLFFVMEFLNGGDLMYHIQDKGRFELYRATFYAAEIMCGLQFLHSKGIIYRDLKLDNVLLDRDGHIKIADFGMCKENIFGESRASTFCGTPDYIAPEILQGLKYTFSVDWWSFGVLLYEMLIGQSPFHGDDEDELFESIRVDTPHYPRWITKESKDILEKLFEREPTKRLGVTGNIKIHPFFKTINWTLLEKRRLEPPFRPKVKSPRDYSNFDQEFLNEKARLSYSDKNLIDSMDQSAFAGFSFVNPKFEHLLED
As to the method: as §1

With `O=C(Cc1ccccc1)Nc1ccc(F)c(Nc2ccc3c(c2)CCCCC3=O)c1` [Compound 100], the Residual activity was 91 % of control in test [1] (1.0E-05 M); 90 % of control in test [1] (1.0E-06 M); 115 % of control in test [2] (1.0E-05 M); 111 % of control in test [2] (1.0E-06 M); 80 % of control in test [3] (1.0E-05 M); 110 % of control in test [3] (1.0E-06 M). The Residual activity was 110 % of control in test [4] (1.0E-05 M); 101 % of control in test [4] (1.0E-06 M); 57 % of control in test [5] (1.0E-05 M); 102 % of control in test [5] (1.0E-06 M); 84 % of control in test [6] (1.0E-05 M); 105 % of control in test [6] (1.0E-06 M). The Residual activity is given as 82 % of control in test [7] (1.0E-05 M) and 98 % of control in test [7] (1.0E-06 M).
`O=C(Nc1ccc(F)c(Nc2ccc3c(c2)CCCCC3=O)c1)c1cccc(F)c1` [Compound 109]: the Residual activity in test [1] (1.0E-05 M) was 88 % of control; in test [1] (1.0E-06 M), 92 % of control; in test [2] (1.0E-05 M) it was 57 % of control; in test [2] (1.0E-06 M), 86 % of control; in test [3] (1.0E-05 M) it was 94 % of control; in test [3] (1.0E-06 M), 100 % of control. Also, the Residual activity is on record as 90 % of control in test [4] (1.0E-05 M); 84 % of control in test [4] (1.0E-06 M); 80 % of control in test [5] (1.0E-05 M); 98 % of control in test [5] (1.0E-06 M); 90 % of control in test [6] (1.0E-05 M); 97 % of control in test [6] (1.0E-06 M). Further, the Residual activity in test [7] (1.0E-05 M) is given as 66 % of control; in test [7] (1.0E-06 M), 107 % of control.
